Test results: patent US7071190B2, “Inhibitors to tubulin polymerization” (Rigel Pharmaceuticals, Inc., priority 2002, dated 2006)
Like-named read-outs stand apart in the source and are kept apart here.

What was measured:
[1] = test system: A549 cells; assay: Bromodeoxyuridine (BrdU) proliferation assay; type: cell-based, human; conditions: for IC50: BrdU ELISA 48 hours after addition of compound, tested 0.03-10 uM, cell line not given (A549 method; SW-480 and MDA-MB-231 also used), read-out: Assay Result (IC50μM); for Activity ranking: particularly active examples of the compounds of the invention / Activity ranking: most active compounds of the invention: antiproliferative activity
Procedure: In order to determine the antiproliferative activity of microtubule inhibitors, A549 cells were plated in 96 well plates at 2000 cells/well 24 hours prior to the addition of a compound of the invention in 80 ul growth media (F12K, 10% FBS, Pen/Strep). Prior to addition to cells, compounds were solubilized in 100% DMSO to 5 mM and serially diluted in 6 semi-log steps in 100% DMSO. The diluted compounds were added to cells by two 15.8-fold dilution steps, the first being a dilution into a 23% ethanol/H2O mixture and the second being a dilution into growth media. Finally, these dilutions were followed by a 1:1 dilution onto cells. The resulting final solvent concentration was 0.2% DMSO/0.75% ethanol. Compounds were tested at final concentrations of 10, 3, 1, 0.3, 0.1 and 0.03 uM. Forty-eight hours after the addition of compound, the effects on cellular proliferation were measured using a cell proliferation BrdU ELISA (Roche Molecular Biochemicals, Cat.#1 669 915).

[2] = test system: MAP-rich tubulin protein from bovine brain; assay: Tubulin polymerization turbidity assay (A340 over time); type: biochemical
Procedure: FIG. 1. Tubulin polymerization inhibitory activity of the compounds of the invention was assayed by following the turbidity of a tubulin-containing solution over time. Polymerization of tubulin generates microtubules, the presence of which increases the absorbance of the assay solution over time. Effective inhibition manifests as a reduction of rate of absorbance increase at 340 nanometers. (a) 10 μM of compounds 19, 39, 43, 54 and 62, as well as 10 μM nocodazole as a positive control and DMSO as a negative control. (b) 10 μM of compounds 1, 88, 95, and 54, as well as 10 μM as well a positive controls 1 and 2 and DMSO as a negative control. (c) 0.4, 2.0 and 10 μM compound 54 versus 0.4, 2.0 and 10 μM nocodazole as a positive control and DMSO as a negative control.
Measurement of the tubulin polymerization can be achieved using known methodologies. For example, assays for tubulin polymerization may be performed using a kit from Cytoskeleton (Denver, Colo.) and as described by Tahir, S. K., et al, (2001) Cancer Res., 61:5480–5.
The assay measures tubulin polymerization as an increase in turbidity (A340) over time. Assays for tubulin polymerization were performed using a kit from Cytoskeleton (Denver, Colo.) and as described by Tahir, S. K., et al, (2001) Cancer Res., 61: 5480–5, incorporated herein by reference, and as described below.
To determine the ability of the compounds to inhibit microtubule polymerization in vitro, the following protocol was followed: (i) 70 μl ice-cold MAP-rich tubulin protein from bovine brain (1.5 mg/ml final concentration) was added to polymerization buffer (80 mM PIPES pH6.8, 1 mM EGTA, 1 mM MgCl2, 1 mM GTP) in a quartz microcuvette; (ii) 0.7 μl of DMSO or 100X stock of control (nocodazole) or test compound (thienopyrimidine) in DMSO were added to the cuvette; (iii) the contents were mixed by pipefting gently; (iv) the polymerization reaction was initiated by placing the cuvette in pre-warmed (37° C.) cuvette holder in Beckman spectrophotometer; (v) the absorbance was monitored at 340 nm at 30 second intervals for 20 minutes. Tubulin polymerization result in increased turbidity in the reaction solution, which is registered as an increase in absorbance at 340 nm. Inhibitors of tubulin polymerization are detected by a reduction in the rate, the initial slope, and/or extent of the turbidity change (i.e., max. absorbance at 340 nm) in plots of ΔA340 versus time.

[3] = 10 μM compound, FIG. 1 (a), (b)

SMILES | IC50 ([1]; Homo sapiens, A549, 48 h) | Activity ranking: particularly active examples of the compounds of the invention [1] | Inhibition of tubulin polymerization (reduction of rate of absorbance increase at 340 nanometers) [2, 3] | Activity ranking: most active compounds of the invention [1] | Inhibition of tubulin polymerization (reduction of rate of absorbance increase at 340 nanometers) ([2]; 0.4, 2.0 and 10 μM, FIG. 1 (c)) | IC50 [1]
COCCNC(=S)NNc1ncnc2cc(-c3ccccc3Cl)sc12 [Compound 95] | 1.47 µM | particularly active | Inhibition activity is observed |  |  | 
S=C(NNc1ncnc2cc(-c3ccccc3)sc12)N[C@@H]1CCC[C@H]1OCc1ccccc1 [Compound 22] | 5.57 µM | particularly active |  |  |  | 
S=C(NNc1ncnc2cc(-c3ccc(Cl)cc3)sc12)Nc1ccccc1 [Compound 34] | 1.5 µM | particularly active |  |  |  | 
COc1ccccc1NC(=S)NNc1ncnc2cc(-c3ccccc3)sc12 [Compound 6] | 0.329 µM | particularly active |  | most active |  | 
CNC(=S)NNc1ncnc2cc(-c3ccccc3)sc12 [Compound 70] | 1.61 µM | particularly active |  |  |  | 
S=C(NCc1ccco1)NNc1ncnc2cc(-c3ccccc3)sc12 [Compound 69] | 0.093 µM | particularly active |  | most active |  | 
S=C(NCCN1CCOCC1)NNc1ncnc2cc(-c3ccccc3)sc12 [Compound 68] | 6.03 µM | particularly active |  |  |  | 
COc1ccc(OC)c(NC(=S)NNc2ncnc3cc(-c4ccccc4)sc23)c1 [Compound 16] | 0.998 µM | particularly active |  | most active |  | 
COC(=O)Nc1nc2ccc(C(=O)c3cccs3)cc2[nH]1 [nocodazole, reference compound] |  |  | Inhibition activity is observed |  | Inhibition activity is observed | 
Cc1cccc(-c2cc3ncnc(NNC(=S)NCC4COC(C)(C)O4)c3s2)c1 (stereo not drawn) [Compound 82] |  | particularly active |  |  |  | 
Cc1ccc(-c2cc3ncnc(NNC(N)=S)c3s2)cc1 [Compound 30] | 1.97 µM | particularly active |  |  |  | 
CCOC(=O)c1ccccc1NC(=S)NNc1ncnc2cc(-c3ccccc3)sc12 [Compound 10] | 1.33 µM | particularly active |  |  |  | 
S=C(NNc1ncnc2cc(-c3ccc4c(c3)OCO4)sc12)Nc1ccccc1 [Compound 52] |  | particularly active |  |  |  | 
COc1cc([N+](=O)[O-])ccc1NC(=S)NNc1ncnc2cc(-c3ccccc3)sc12 [Compound 17] |  | particularly active |  |  |  | 5.11 µM
COCCNC(=S)NNc1ncnc2cc(-c3ccc(C)cc3)sc12 [Compound 87] | 0.166 µM | particularly active |  | most active |  | 
FC(F)(F)c1ccccc1NC(=S)NNc1ncnc2cc(-c3ccccc3)sc12 [Compound 4] | 0.904 µM | particularly active |  | most active |  | 
S=C(NC[C@@H]1CCCO1)NNc1ncnc2cc(-c3ccccc3)sc12 [Compound 65] | 0.134 µM | particularly active |  | most active |  | 
COCCNC(=S)NNc1ncnc2cc(-c3ccc4c(c3)OCO4)sc12 [Compound 102] | 0.385 µM | particularly active |  | most active |  | 
Cc1ccc(-c2cc3ncnc(NNC(=S)NC4CC4)c3s2)cc1 [Compound 38] | 0.121 µM | particularly active |  | most active |  | 
COc1cccc(NC(=S)NNc2ncnc3cc(-c4ccccc4)sc23)c1 [Compound 5] | 0.49 µM | particularly active |  | most active |  | 
CCOC(=O)c1ccccc1NC(=S)NNc1ncnc2cc(-c3ccccc3)sc12 [Compound 11] |  | particularly active |  |  |  | 2.2 µM
Cc1cccc(-c2cc3ncnc(NNC(=S)NC[C@@H]4CCCO4)c3s2)c1 [Compound 80] | 0.151 µM | particularly active |  | most active |  | 
CCCNC(=S)NNc1ncnc2cc(-c3ccccc3)sc12 [Compound 71] | 0.02 µM | particularly active |  | most active |  | 
Cc1ccc(-c2cc3ncnc(NNC(=S)NC4CC4)c3s2)cc1C [Compound 55] | 0.15 µM | particularly active |  | most active |  | 
COc1ccc(-c2cc3ncnc(NNC(=S)Nc4ccccc4)c3s2)cc1 [Compound 33] | 0.155 µM | particularly active |  | most active |  | 
S=C(NCCN1CCCCC1)NNc1ncnc2cc(-c3ccccc3)sc12 [Compound 67] | 18.6 µM | particularly active |  |  |  | 
Cc1ccc(-c2cc3ncnc(NNC(=S)Nc4ccccc4)c3s2)cc1 [Compound 31] | 0.369 µM | particularly active |  | most active |  | 
S=C(NNc1ncnc2cc(-c3ccccc3)sc12)Nc1cccnc1 [Compound 25] | 6.44 µM | particularly active |  |  |  | 
Cc1cccc(-c2cc3ncnc(NNC(=S)NC4CCCC4)c3s2)c1 [Compound 46] | 0.256 µM | particularly active |  | most active |  | 
